What was measured:
[1] = Peptide toxins in the bile of beagles with biliary drainage; assay type: in vivo, beagle dogs; settings: for Accumulated amounts excreted in bile / percentage of total bile excretion, Accumulated amounts: 0–4 days; for ratio of peptide toxins in bile to excretion in urine and bile: mean ± SD
Experimental: (§1) The study was approved by National Institute of Occupational Health and Poison Control review board for animal experiments. Twenty-four male beagles (age, 8–10 months; weight, 10 ± 1 kg) were obtained from Beijing Institute of Xieerxin Biology Resource (Beijing, China). They were randomly divided into four groups of six animals each: control, biliary drainage, and 20 and 60 mg/kg with biliary drainage groups. The biliary drainage operation was conducted in all groups barring the control group. The dogs were dressed in homemade underwear, coats, and Elizabeth circles for a week to ensure pre-experimental acclimatization (Figure S8a–c). After determining the baseline values for biochemical indicators, the dogs were fasted for 24 h but received water ad libitum. They were anesthetized by intravenous administration of pentobarbital sodium (3%, 1 mL/kg) during the surgery. A temperature of 38–39 °C was maintained with a warming mat. After skin preservation and sterilization, the abdominal cavity was opened through the central abdomen. The abdomen was explored and blunt dissection of the common bile duct was performed (Figure S8d). The common bile duct and its branches were ligated from the intestinal side. A 7.0-Fr drainage catheter (COOK, Bloomington, IN, USA) was percutaneously inserted into the gallbladder, and a medical drainage bag was connected to the drainage catheter coming out of the abdominal cavity. Each opened layer, including the peritoneum, abdominal wall muscle, and skin, was closed with suture. The operative incision was protected with sterile gauze and a bandage, and the dogs were dressed in homemade underwear, coats, and Elizabeth circles. The drainage bag was placed in the pocket of the coat (Figure S8e). After the anesthetic wore off, the dogs were placed in cages, and food and water were provided ad libitum. The operative incision was sterilized with iodophor twice a day until stitches were removed six days after surgery. The drainage bag was replaced every day. On the eighth day after surgery, the 20 and 60 mg/kg with biliary drainage groups were orally administered a lyophilized powder of Amanita exitialis in starch capsules. In control and bile drainage group, the beagle dogs were fed with empty capsules. Immediately after dosing, the animals were placed in their cages, and food and water were provided ad libitum. Dogs were sacrificed with an overdose of sodium pentobarbital at the end of the experiment. All procedures were performed according to the ethical standards of the National Institutes of Health Guide for Animal Welfare and approved by the Institutional Animal Care and Use Committee (EAWE-2017-005).
(§2) Peptide toxins in blood and urine samples were analyzed as described previously. Bile samples from Days 0–1, Days 1–2, Days 2–3, and Days 3–4 were collected and stored in medical drainage bags and the bile volume was recorded. Plasma and urine samples were stored at 2–8 °C until analysis for peptide toxins.
α-Amanitin, β-amanitin, γ-amanitin, and phallacidin were used as the standard reference materials. Aliquots (0.2 mL) of bile samples were transferred into 2-mL polypropylene centrifuge tubes in duplicates. Next, 1 mL of acetonitrile was added to each tube. After vortex-mixing for 1 min, each sample was sonicated for 30 min and centrifuged at 11,200× g for 10 min at 4 °C. The supernatants were loaded on solid-phase extraction columns (Oasis PRiME HLB, 60 mg, 3 cc). The columns were then washed with 3 mL of methanol/ultrapure water (v/v: 5/95). The eluent was evaporated in a stream of nitrogen at room temperature. The dry residue was dissolved in 0.2 mL of ultrapure water and analyzed by UPLC-ESI-MS/MS.
(§3) UPLC and MS/MS parameters were as described in our previous study. The limit of detection and limit of quantitation of each toxin in the bile were 0.03 mg/kg and 0.5 mg/kg, respectively.

[2] = Peptide toxins in the urine of beagles with biliary drainage; assay type: in vivo, beagle dogs; settings: for Total (accumulated) amount excreted in urine / percentage of total urine excretion, Total: 0–4 days
Experimental: as §1, §2, §3

[3] = 0-1 d, 20 mg/kg with biliary drainage group
[4] = 0-1 d, 60 mg/kg with biliary drainage group
[5] = 0–1 days, 20 mg/kg with biliary drainage group
[6] = 0–1 days, 60 mg/kg with biliary drainage group
[7] = 20 mg/kg with biliary drainage group
[8] = 60 mg/kg with biliary drainage group
[9] = 1-2 d, 20 mg/kg with biliary drainage group
[10] = 1-2 d, 60 mg/kg with biliary drainage group
[11] = 1–2 days, 20 mg/kg with biliary drainage group
[12] = 1–2 days, 60 mg/kg with biliary drainage group
[13] = 2-3 d, 20 mg/kg with biliary drainage group
[14] = 2-3 d, 60 mg/kg with biliary drainage group
[15] = 2–3 days, 20 mg/kg with biliary drainage group
[16] = 2–3 days, 60 mg/kg with biliary drainage group
[17] = 3-4d, 20 mg/kg with biliary drainage group
[18] = 3-4d, 60 mg/kg with biliary drainage group
[19] = 3–4 days, 20 mg/kg with biliary drainage group
[20] = 3–4 days, 60 mg/kg with biliary drainage group

CC[C@H](C)[C@@H]1NC(=O)CNC(=O)[C@@H]2Cc3c([nH]c4cc(O)ccc34)[S@+]([O-])C[C@H](NC(=O)CNC1=O)C(=O)N[C@@H](CC(=O)O)C(=O)N1C[C@H](O)C[C@H]1C(=O)N[C@@H]([C@@H](C)[C@@H](O)CO)C(=O)N2 [β-amanitin]
detection rate of peptide toxins in bile [1, 3]: 50% | detection rate of peptide toxins in bile [1, 4]: 83% | daily amount excreted in bile [1, 5]: 0.00014 mg | percentage of total bile excretion excreted daily [1, 5]: 100% | daily amount excreted in bile [1, 6]: 0.00122 mg | percentage of total bile excretion excreted daily [1, 6]: 100% | Accumulated amounts excreted in bile [1, 7]: 0.00014 mg | percentage of total bile excretion, Accumulated amounts [1, 7]: 100% | percentage of total bile excretion, Accumulated amounts [1, 8]: 100% | Accumulated amounts excreted in bile ([1]; 60 mg/kg with biliary drainage group, 60 mg/kg): 0.0012 mg | Accumulated amounts excreted in bile ([1]; 60 mg/kg with biliary drainage group, listed as β-Amanitin, 60 mg/kg): 0.00122 mg | ratio of peptide toxins in bile to excretion in urine and bile [1, 7]: less than 10% | ratio of peptide toxins in bile to excretion in urine and bile ([1]; 20 mg/kg with biliary drainage group, listed as β-Amanitin): 5.7 ± 8.5% | ratio of peptide toxins in bile to excretion in urine and bile [1, 8]: less than 20% | ratio of peptide toxins in bile to excretion in urine and bile ([1]; 60 mg/kg with biliary drainage group, listed as β-Amanitin): 15.4 ± 10.6% | detection rate of peptide toxins in bile [1, 9]: 0% | toxin concentration in bile [1, 9]: 0 µg/L | detection rate of peptide toxins in bile [1, 10]: 0% | toxin concentration in bile [1, 10]: 0 µg/L | daily amount excreted in bile [1, 11]: 0(0%) mg | percentage of total bile excretion excreted daily [1, 11]: 0(0%) | daily amount excreted in bile [1, 12]: 0(0%) mg | percentage of total bile excretion excreted daily [1, 12]: 0(0%) | detection rate of peptide toxins in bile [1, 13]: 0% | toxin concentration in bile [1, 13]: 0 µg/L | detection rate of peptide toxins in bile [1, 14]: 0% | toxin concentration in bile [1, 14]: 0 µg/L | daily amount excreted in bile [1, 15]: 0(0%) mg | percentage of total bile excretion excreted daily [1, 15]: 0(0%) | daily amount excreted in bile [1, 16]: 0(0%) mg | percentage of total bile excretion excreted daily [1, 16]: 0(0%) | detection rate of peptide toxins in bile [1, 17]: 0% | toxin concentration in bile [1, 17]: 0 µg/L | detection rate of peptide toxins in bile [1, 18]: 0% | toxin concentration in bile [1, 18]: 0 µg/L | daily amount excreted in bile [1, 19]: 0(0%) mg | percentage of total bile excretion excreted daily [1, 19]: 0(0%) | daily amount excreted in bile [1, 20]: 0(0%) mg | percentage of total bile excretion excreted daily [1, 20]: 0(0%) | detection rate of peptide toxins in urine [2, 3]: 100% | detection rate of peptide toxins in urine [2, 4]: 100% | daily amount excreted in urine [2, 5]: 0.0050 mg | percentage of total urine excretion excreted daily ([2]; 0–1 days, 20 mg/kg with biliary drainage group, 20 mg/kg): more than 90% | percentage of total urine excretion excreted daily ([2]; 0–1 days, 20 mg/kg with biliary drainage group, listed as β-Amanitin, 20 mg/kg): 93.9% | daily amount excreted in urine [2, 6]: 0.0065 mg | percentage of total urine excretion excreted daily ([2]; 0–1 days, 60 mg/kg with biliary drainage group, 60 mg/kg): more than 90% | percentage of total urine excretion excreted daily ([2]; 0–1 days, 60 mg/kg with biliary drainage group, listed as β-Amanitin, 60 mg/kg): 91.4% | Total (accumulated) amount excreted in urine [2, 7]: 0.0055 mg | percentage of total urine excretion, Total [2, 7]: 100% | Total (accumulated) amount excreted in urine [2, 8]: 0.0068 mg | percentage of total urine excretion, Total [2, 8]: 100% | time within which toxin was detected in urine [2, 7]: two | time within which toxin was detected in urine [2, 8]: two | detection rate of peptide toxins in urine [2, 9]: 50% | detection rate of peptide toxins in urine [2, 10]: 83% | daily amount excreted in urine [2, 11]: 0.0005 mg | percentage of total urine excretion excreted daily [2, 11]: 6.1% | daily amount excreted in urine [2, 12]: 0.0003 mg | percentage of total urine excretion excreted daily [2, 12]: 8.6% | detection rate of peptide toxins in urine [2, 13]: 0% | toxin content in urine ([2]; 2-3d, 20 mg/kg with biliary drainage group, mean ± SD): 0 µg/L | detection rate of peptide toxins in urine [2, 14]: 0% | toxin content in urine ([2]; 2-3d, 60 mg/kg with biliary drainage group, mean ± SD): 0 µg/L | daily amount excreted in urine [2, 15]: 0(0%) mg | percentage of total urine excretion excreted daily [2, 15]: 0(0%) | daily amount excreted in urine [2, 16]: 0(0%) mg | percentage of total urine excretion excreted daily [2, 16]: 0(0%) | detection rate of peptide toxins in urine [2, 17]: 0% | toxin content in urine [2, 17]: 0 µg/L | detection rate of peptide toxins in urine [2, 18]: 0% | toxin content in urine [2, 18]: 0 µg/L | daily amount excreted in urine [2, 19]: 0(0%) mg | percentage of total urine excretion excreted daily [2, 19]: 0(0%) | daily amount excreted in urine [2, 20]: 0(0%) mg | percentage of total urine excretion excreted daily [2, 20]: 0(0%) | share of total urine excretion in the 0–2-day urine ([2]; beagles with biliary drainage, both dose groups): more than 95%
